Measured values from patent publication US11839639B2, “Inhibition of androgen receptor by extracts of medicinal herbs and compositions thereof” (YALE UNIVERSITY, priority 2017, dated 2023).
“Also recorded” adds a separate entry of the source.

What was measured:
[1] = biological target: androgen receptor (Homo sapiens, UniProt P10275); experiment: PSA promoter luciferase reporter assay, 22RV1 AR-luciferase reporter cells; assay type: cell-based; conditions: for anti-androgen receptor (AR) activity, luciferase reporter assay: 22RV1 AR-luciferase reporter cells, with DHT; for anti-androgen receptor activity, luciferase reporter assay: in present of DHT 10 nM
Procedure: 22RV1 prostate cancer cells were used in the screening study. 22RV1 cell lines were stably transfected with PSA promoter-PGL4.2 luciferase reporter. 25 nM) H T was used to induce androgen receptor for 24 h.
22RV1 androgen reporter cells were treated with herbal extracts at 30, 100, 300, and 1000 μg/ml for 24 h in a 37° C.-CO2 incubator with or without 25 nM DHT which was used androgen receptor activity. Cells were lysed using luciferase lysis buffer after which luciferase buffer with luciferin was added to generate luminescence. Luminescence was recorded using a luminescence microplate reader.

[2] = test system: DU145 xenograft; experiment: DU145 xenograft tumor growth; assay type: in vivo, mouse; conditions: nude mice
Procedure: (§1) In another animal experiment, we compared the anti-prostate tumor growth effect of S6, F5, and PE1 (each 300 mg/kg bid) to enzalutamide (10 mg/kg qd) (targeting on AR) on LNCaP (androgen dependent) xenograft tumor and Du145 xenograft tumor in nude mice for two weeks.

[3] = test system: LNCaP (androgen dependent) xenograft tumor; experiment: LNCaP xenograft tumor growth; assay type: in vivo, nude mice; conditions: S6, F5, PE1 each 300 mg/kg bid; enzalutamide 10 mg/kg qd; two weeks
Procedure: as §1

[4] = test system: 22RV1 xenograft; experiment: 22RV1 xenograft tumor growth; assay type: in vivo, mouse; conditions: gallic acid 23 mg/kg BID orally, nude mice
Excerpt: E5 may have higher selectively to inhibit prostate cancer with AR protein in vivo. I2 may have higher selectively to inhibit prostate cancer without AR protein expression in vivo.

Chain of androgen receptor (P10275 whole entry): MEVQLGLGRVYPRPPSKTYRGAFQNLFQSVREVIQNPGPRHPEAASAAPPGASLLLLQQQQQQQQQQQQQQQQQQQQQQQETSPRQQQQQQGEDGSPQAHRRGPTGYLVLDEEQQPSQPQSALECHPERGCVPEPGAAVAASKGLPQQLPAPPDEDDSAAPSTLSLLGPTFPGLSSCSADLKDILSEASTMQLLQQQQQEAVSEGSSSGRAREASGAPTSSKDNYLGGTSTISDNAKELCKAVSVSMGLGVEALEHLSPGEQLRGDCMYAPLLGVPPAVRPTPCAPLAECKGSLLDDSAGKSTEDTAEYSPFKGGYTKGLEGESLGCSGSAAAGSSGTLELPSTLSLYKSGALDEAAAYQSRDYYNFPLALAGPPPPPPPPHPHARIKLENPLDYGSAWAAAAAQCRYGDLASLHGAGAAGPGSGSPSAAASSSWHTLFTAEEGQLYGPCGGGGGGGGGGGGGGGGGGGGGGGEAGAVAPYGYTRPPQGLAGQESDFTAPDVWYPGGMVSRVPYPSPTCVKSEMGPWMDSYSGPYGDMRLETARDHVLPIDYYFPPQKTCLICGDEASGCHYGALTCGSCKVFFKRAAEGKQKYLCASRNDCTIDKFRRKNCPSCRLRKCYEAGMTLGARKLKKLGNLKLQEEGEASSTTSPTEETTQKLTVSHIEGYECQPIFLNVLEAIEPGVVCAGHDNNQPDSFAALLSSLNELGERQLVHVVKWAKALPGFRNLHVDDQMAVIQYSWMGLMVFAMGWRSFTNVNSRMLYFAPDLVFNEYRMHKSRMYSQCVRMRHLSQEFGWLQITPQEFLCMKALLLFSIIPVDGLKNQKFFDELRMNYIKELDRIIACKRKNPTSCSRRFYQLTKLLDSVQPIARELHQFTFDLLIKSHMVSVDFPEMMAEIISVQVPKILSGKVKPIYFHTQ

SMILES	anti-androgen receptor (AR) activity, luciferase reporter assay [1]	anti-androgen receptor activity, luciferase reporter assay [1]	other results
Oc1cc(O)c2c(c1)O[C@H](c1cc(O)c(O)c(O)c1)[C@H](O)C2 [Epigallocatechin]	showed inhibition; also recorded: different potency on inhibiting AR	highest potency against AR	–
CNC(=O)c1ccc(N2C(=S)N(c3ccc(C#N)c(C(F)(F)F)c3)C(=O)C2(C)C)cc1F [enzalutamide, reference compound]	–	–	growth of Du145 xenograft tumor ([2]; S6, F5, PE1 each 300 mg/kg bid, enzalutamide 10 mg/kg qd, two weeks): not Du145 tumors; growth of LNCaP xenograft tumor [3]: effectively inhibited
O=C(O)c1cc(O)c(O)c(O)c1 [gallic acid]	–	–	in vivo anti-tumor activity, 22RV1 tumor [4]: exhibit in vivo anti-tumor activity; in vivo anti-tumor activity, Du145 tumor ([2]; gallic acid 23 mg/kg BID orally): exhibit in vivo anti-tumor activity
Oc1cc(O)c2c(c1)O[C@H](c1cc(O)c(O)c(O)c1)[C@@H](O)C2 [gallocatechin]	showed inhibition; also recorded: different potency on inhibiting AR	found to have anti-androgen receptor activity	–
O=C(O)c1cc(O)c2c(c1)[C@H]([C@H]1c3cc(CO)cc(O)c3C(=O)c3c(O[C@@H]4O[C@H](CO)[C@@H](O)[C@H](O)[C@H]4O)cccc31)c1cccc(O[C@@H]3O[C@H](CO)[C@@H](O)[C@H](O)[C@H]3O)c1C2=O [sennoside C]	no	–	–
O=C(O)c1cc(O)c2c(c1)[C@H]([C@@H]1c3cc(CO)cc(O)c3C(=O)c3c(O[C@@H]4O[C@H](CO)[C@@H](O)[C@H](O)[C@H]4O)cccc31)c1cccc(O[C@@H]3O[C@H](CO)[C@@H](O)[C@H](O)[C@H]3O)c1C2=O [sennoside D]	no	–	–
